Activity calls are given as the source filed them. The rule behind the calls is not given here.
Test system: CCRIS mutagenicity, Ames/micronucleus/aberration tests
Assay: CCRIS mutagenicity studies
[1] = Test System: AMES SALMONELLA TYPHIMURIUM, Strain/Indicator: TA98, Metabolic Activation: RAT, LIVER, S-9, AROCLOR 1254, Method: STANDARD PLATE
[2] = Test System: AMES SALMONELLA TYPHIMURIUM, Strain/Indicator: TA100, Metabolic Activation: NONE, Method: STANDARD PLATE
[3] = Test System: AMES SALMONELLA TYPHIMURIUM, Strain/Indicator: TA100, Metabolic Activation: RAT, LIVER, S-9, AROCLOR 1254, Method: STANDARD PLATE
[4] = Test System: AMES SALMONELLA TYPHIMURIUM, Strain/Indicator: TA98, Metabolic Activation: NONE, Method: STANDARD PLATE

## N[C@@H](CS)C(=O)O
End Point: IN VIVO MICRONUCLEUS, Test System: BONE MARROW POLYCHROMATIC ERYTHROCYTES, Species: MOUSE, Strain/Sex: DDY/MALE, Route: IP
  mutagenic call: inactive; negative
Test System: AMES SALMONELLA TYPHIMURIUM, Strain/Indicator: TA92, Metabolic Activation: HOMOGENIZED V-79, Method: STANDARD PLATE
  mutagenic call: active; positive
Test System: AMES SALMONELLA TYPHIMURIUM, Strain/Indicator: TA92, Metabolic Activation: NONE, Method: STANDARD PLATE
  mutagenic call: active; positive
Test System: AMES SALMONELLA TYPHIMURIUM, Strain/Indicator: TA92, Metabolic Activation: RAT, KIDNEY, S-9, Method: PREINCUBATION
  mutagenic call: active; positive
Test System: AMES SALMONELLA TYPHIMURIUM, Strain/Indicator: TA92, Metabolic Activation: RAT, KIDNEY, S-9, Method: STANDARD PLATE
  mutagenic call: active; positive
Test System: AMES SALMONELLA TYPHIMURIUM, Strain/Indicator: TA92, Metabolic Activation: RAT, LIVER, S-9, Method: STANDARD PLATE
  mutagenic call: active; positive
Test System: AMES SALMONELLA TYPHIMURIUM, Strain/Indicator: TA97, Metabolic Activation: RAT, KIDNEY, S-9, Method: PREINCUBATION
  mutagenic call: active; positive
Test System: AMES SALMONELLA TYPHIMURIUM, Strain/Indicator: TA97, Metabolic Activation: RAT, KIDNEY, S-9, Method: STANDARD PLATE
  mutagenic call: active; positive
Test System: AMES SALMONELLA TYPHIMURIUM, Strain/Indicator: TA98, Metabolic Activation: HAMSTER, LIVER, S-9, AROCLOR 1254, Method: STANDARD PLATE
  mutagenic call: active; positive
[1]
  mutagenic call: active; positive
Test System: AMES SALMONELLA TYPHIMURIUM, Strain/Indicator: TA100, Metabolic Activation: HAMSTER, LIVER, S-9, AROCLOR 1254, Method: STANDARD PLATE
  mutagenic call: active; positive
[2]
  mutagenic call: active; positive
Test System: AMES SALMONELLA TYPHIMURIUM, Strain/Indicator: TA100, Metabolic Activation: RAT, KIDNEY, S-9, Method: PREINCUBATION
  mutagenic call: active; positive
Test System: AMES SALMONELLA TYPHIMURIUM, Strain/Indicator: TA100, Metabolic Activation: RAT, KIDNEY, S-9, Method: STANDARD PLATE
  mutagenic call: active; positive
[3]
  mutagenic call: active; positive
Test System: AMES SALMONELLA TYPHIMURIUM, Strain/Indicator: TA100, Metabolic Activation: RAT, LIVER, S-9, Method: STANDARD PLATE
  mutagenic call: active; positive
Test System: AMES SALMONELLA TYPHIMURIUM, Strain/Indicator: TA102, Metabolic Activation: NONE, Method: STANDARD PLATE
  mutagenic call: active; positive
Test System: AMES SALMONELLA TYPHIMURIUM, Strain/Indicator: TA102, Metabolic Activation: RAT, KIDNEY, S-9, Method: PREINCUBATION
  mutagenic call: active; positive
Test System: AMES SALMONELLA TYPHIMURIUM, Strain/Indicator: TA104, Metabolic Activation: RAT, KIDNEY, S-9, Method: PREINCUBATION
  mutagenic call: active; positive
Test System: AMES SALMONELLA TYPHIMURIUM, Strain/Indicator: TA104, Metabolic Activation: RAT, KIDNEY, S-9, Method: STANDARD PLATE
  mutagenic call: inactive; negative
Test System: AMES SALMONELLA TYPHIMURIUM, Strain/Indicator: TA1535, Metabolic Activation: RAT, KIDNEY, S-9, Method: PREINCUBATION
  mutagenic call: inactive; negative
Test System: AMES SALMONELLA TYPHIMURIUM, Strain/Indicator: TA1537, Metabolic Activation: RAT, KIDNEY, S-9, Method: PREINCUBATION
  mutagenic call: inactive; negative
Test System: CHINESE HAMSTER V-79, Strain/Indicator: V-79/6-THIOGUANINE, Metabolic Activation: NONE, Method: STANDARD PLATE
  mutagenic call: inactive; negative
Test System: MOUSE LYMPHOMA, Strain/Indicator: L5178Y (TK+/TK-), Metabolic Activation: NONE, Method: SUSPENSION/PLATE
  mutagenic call: active; positive. reevaluation of results: positive
Test System: MOUSE LYMPHOMA, Strain/Indicator: L5178Y (TK+/TK-), Metabolic Activation: RAT, LIVER, S-9, AROCLOR 1254, Method: SUSPENSION/PLATE
  mutagenic call: active; positive. reevaluation of results: positive

## CCCCO
[4]
  mutagenic call: inactive; negative
Test System: AMES SALMONELLA TYPHIMURIUM, Strain/Indicator: TA98, Metabolic Activation: RAT, LIVER, S-9, AROCLOR, Method: STANDARD PLATE
  mutagenic call: inactive; negative
[2]
  mutagenic call: inactive; negative
Test System: AMES SALMONELLA TYPHIMURIUM, Strain/Indicator: TA100, Metabolic Activation: RAT, LIVER, S-9, AROCLOR, Method: STANDARD PLATE
  mutagenic call: inactive; negative
Test System: AMES SALMONELLA TYPHIMURIUM, Strain/Indicator: UTH8413, Metabolic Activation: NONE, Method: STANDARD PLATE
  mutagenic call: inactive; negative
Test System: AMES SALMONELLA TYPHIMURIUM, Strain/Indicator: UTH8413, Metabolic Activation: RAT, LIVER, S-9, AROCLOR, Method: STANDARD PLATE
  mutagenic call: inactive; negative
Test System: AMES SALMONELLA TYPHIMURIUM, Strain/Indicator: UTH8414, Metabolic Activation: NONE, Method: STANDARD PLATE
  mutagenic call: inactive; negative
Test System: AMES SALMONELLA TYPHIMURIUM, Strain/Indicator: UTH8414, Metabolic Activation: RAT, LIVER, S-9, AROCLOR, Method: STANDARD PLATE
  mutagenic call: inactive; negative

## Nc1cccc2cccc(N)c12
Test System: AMES SALMONELLA TYPHIMURIUM, Strain/Indicator: TA98, Metabolic Activation: RAT LIVER, CYTOSOL, AROCLOR 1254, Method: STANDARD PLATE
  mutagenic call: inactive; negative
Test System: AMES SALMONELLA TYPHIMURIUM, Strain/Indicator: TA98, Metabolic Activation: RAT LIVER, MICROSOMES, AROCLOR 1254, Method: STANDARD PLATE
  mutagenic call: active; positive

## Nc1cnc2c(c1)nc1ccccn12
[4]
  mutagenic call: inactive; negative
Test System: AMES SALMONELLA TYPHIMURIUM, Strain/Indicator: TA98, Metabolic Activation: RAT, LIVER, CYTOSOL, AROCLOR 1254, Method: STANDARD PLATE
  mutagenic call: inactive; negative
Test System: AMES SALMONELLA TYPHIMURIUM, Strain/Indicator: TA98, Metabolic Activation: RAT, LIVER, MICROSOMES, AROCLOR 1254, Method: STANDARD PLATE
  mutagenic call: inactive; negative
[1]
  mutagenic call: active; positive

## OCC(O)CCl (configuration not stated)
Test System: AMES SALMONELLA TYPHIMURIUM, Strain/Indicator: TA97, Metabolic Activation: HAMSTER, LIVER, S-9, AROCLOR 1254 (10%), Method: PREINCUBATION
  mutagenic call: inactive; negative
Test System: AMES SALMONELLA TYPHIMURIUM, Strain/Indicator: TA97, Metabolic Activation: RAT, LIVER, S-9, AROCLOR 1254 (10%), Method: PREINCUBATION
  mutagenic call: inactive; negative
Test System: AMES SALMONELLA TYPHIMURIUM, Strain/Indicator: TA98, Metabolic Activation: HAMSTER, LIVER, S-9, AROCLOR 1254 (10%), Method: PREINCUBATION
  mutagenic call: inactive; negative
Test System: AMES SALMONELLA TYPHIMURIUM, Strain/Indicator: TA98, Metabolic Activation: RAT, LIVER, S-9, AROCLOR 1254 (10%), Method: PREINCUBATION
  mutagenic call: inactive; negative
Test System: AMES SALMONELLA TYPHIMURIUM, Strain/Indicator: TA98, Metabolic Activation: RAT, LIVER, S-9, KANECHLOR 500, Method: PREINCUBATION
  mutagenic call: inactive; negative
Test System: AMES SALMONELLA TYPHIMURIUM, Strain/Indicator: TA100, Metabolic Activation: HAMSTER, LIVER, S-9, AROCLOR 1254 (10%), Method: PREINCUBATION
  mutagenic call: active; positive
Test System: AMES SALMONELLA TYPHIMURIUM, Strain/Indicator: TA100, Metabolic Activation: NONE, Method: PREINCUBATION
  mutagenic call: active; positive
Test System: AMES SALMONELLA TYPHIMURIUM, Strain/Indicator: TA100, Metabolic Activation: RAT, LIVER, S-9, AROCLOR 1254 (10%), Method: PREINCUBATION
  mutagenic call: active; positive
Test System: AMES SALMONELLA TYPHIMURIUM, Strain/Indicator: TA100, Metabolic Activation: RAT, LIVER, S-9, KANECHLOR 500, Method: PREINCUBATION
  mutagenic call: inactive; negative
Test System: AMES SALMONELLA TYPHIMURIUM, Strain/Indicator: TA1535, Metabolic Activation: HAMSTER, LIVER, S-9, AROCLOR 1254 (10%), Method: PREINCUBATION
  mutagenic call: active; positive
Test System: AMES SALMONELLA TYPHIMURIUM, Strain/Indicator: TA1535, Metabolic Activation: NONE, Method: PREINCUBATION
  mutagenic call: active; positive
Test System: AMES SALMONELLA TYPHIMURIUM, Strain/Indicator: TA1535, Metabolic Activation: RAT, LIVER, S-9, AROCLOR 1254 (10%), Method: PREINCUBATION
  mutagenic call: active; positive

## Cc1cc(N)cc([N+](=O)[O-])c1N
[1]
  mutagenic call: active; positive
Test System: AMES SALMONELLA TYPHIMURIUM, Strain/Indicator: TA1538, Metabolic Activation: RAT, LIVER, S-9, AROCLOR 1254, Method: STANDARD PLATE
  mutagenic call: active; positive

## Cc1ccc(C(=O)O[C@@H](C(=O)O)[C@@H](OC(=O)c2ccc(C)cc2)C(=O)O)cc1 (tested in a mixture with another compound)
[1]
  mutagenic call: active; positive
[2]
  mutagenic call: inactive; negative
[3]
  mutagenic call: active; positive
Test System: AMES SALMONELLA TYPHIMURIUM, Strain/Indicator: TA1537, Metabolic Activation: RAT, LIVER, S-9, AROCLOR 1254, Method: STANDARD PLATE
  mutagenic call: active; positive

From PubChem BioAssay AID1259407 (Chemical Carcinogenesis Research Information System (CCRIS), 2018)
